Laboratory results as given in ChEMBL document CHEMBL1130818, “High affinity, selective neurokinin 2 and neurokinin 3 receptor antagonists from a common structural template” (Bioorg Med Chem Lett, 1998).

Experiments:
Substance-P receptor = Substance-P receptor (Homo sapiens, UniProt P25103); assay: Compound was evaluated for affinity towards human Neurokinin NK1 receptor
Neuromedin-K receptor = target: T1, Neuromedin-K receptor (Homo sapiens, UniProt P29371); assay: Compound was evaluated for affinity towards human Neurokinin NK3 receptor
T1 sequence (P29371 whole entry): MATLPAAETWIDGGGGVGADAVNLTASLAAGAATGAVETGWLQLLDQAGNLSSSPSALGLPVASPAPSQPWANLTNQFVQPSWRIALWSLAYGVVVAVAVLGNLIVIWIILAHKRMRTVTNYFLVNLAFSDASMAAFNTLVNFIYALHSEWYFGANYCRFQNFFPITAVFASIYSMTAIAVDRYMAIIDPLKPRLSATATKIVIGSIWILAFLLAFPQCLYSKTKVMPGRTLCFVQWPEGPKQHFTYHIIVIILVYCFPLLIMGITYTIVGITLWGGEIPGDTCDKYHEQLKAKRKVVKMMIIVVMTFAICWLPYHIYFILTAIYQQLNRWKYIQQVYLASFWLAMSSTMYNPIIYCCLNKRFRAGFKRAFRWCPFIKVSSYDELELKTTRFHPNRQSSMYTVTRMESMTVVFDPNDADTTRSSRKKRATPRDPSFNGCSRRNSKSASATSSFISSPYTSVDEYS

Substance-K receptor = target: T2, Substance-K receptor (Homo sapiens, UniProt P21452); assay: Compound was evaluated for affinity towards human Neurokinin NK2 receptor
T2 sequence (P21452 whole entry): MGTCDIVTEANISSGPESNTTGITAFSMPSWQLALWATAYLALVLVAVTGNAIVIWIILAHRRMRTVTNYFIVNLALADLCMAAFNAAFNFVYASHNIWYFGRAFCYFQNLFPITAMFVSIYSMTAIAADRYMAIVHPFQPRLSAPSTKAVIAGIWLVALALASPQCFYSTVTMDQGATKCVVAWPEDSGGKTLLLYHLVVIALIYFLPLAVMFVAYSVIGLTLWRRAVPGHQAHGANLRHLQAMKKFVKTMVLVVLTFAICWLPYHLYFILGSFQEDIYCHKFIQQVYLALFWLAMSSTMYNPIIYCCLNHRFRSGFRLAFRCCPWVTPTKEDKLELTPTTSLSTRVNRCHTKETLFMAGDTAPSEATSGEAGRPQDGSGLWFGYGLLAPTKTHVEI

Substance-P receptor, sequence (P25103 whole entry): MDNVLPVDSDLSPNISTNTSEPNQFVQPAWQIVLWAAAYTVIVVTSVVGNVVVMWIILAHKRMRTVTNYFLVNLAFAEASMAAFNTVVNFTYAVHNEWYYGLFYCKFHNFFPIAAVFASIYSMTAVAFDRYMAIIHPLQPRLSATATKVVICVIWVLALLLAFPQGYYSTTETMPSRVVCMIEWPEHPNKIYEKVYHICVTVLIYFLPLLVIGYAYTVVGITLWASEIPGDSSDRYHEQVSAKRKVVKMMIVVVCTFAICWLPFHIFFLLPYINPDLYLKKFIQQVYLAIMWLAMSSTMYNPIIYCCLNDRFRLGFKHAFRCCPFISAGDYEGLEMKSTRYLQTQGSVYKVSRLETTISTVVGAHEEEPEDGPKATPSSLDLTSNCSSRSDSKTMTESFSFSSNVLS

Row | Compound | IC50 (Substance-P receptor) [nM] | IC50 (Neuromedin-K receptor) [nM] | IC50 (Substance-K receptor) [nM]
1 | O=C1CCC(CCCN2CCC(n3c(=O)[nH]c4ccccc43)CC2)(c2ccc(Cl)c(Cl)c2)CN1Cc1ccccc1 (configuration not stated) | 743 | 539 | 6.4
2 | O=C(c1ccccc1)N1CCCC(CCCN2CCC3(CCc4ccccc43)CC2)(c2ccc(Cl)c(Cl)c2)C1 (configuration not stated) | 272 | 2.6 | 204
3 | CC(=O)C1(c2ccccc2)CCN(CCCC2(c3ccc(Cl)c(Cl)c3)CCC(=O)N(Cc3ccccc3)C2)CC1 (configuration not stated) | 1030 | 19 | 3.9
4 | O=C(c1ccccc1)N1CCCC(CCCN2CCC3(CC2)CN(c2ccccc2)NC3=O)(c2ccc(Cl)c(Cl)c2)C1 (configuration not stated) | 108 | 6.8 | 50
5 | CC(=O)C1(c2ccccc2)CCN(CCCC2(c3ccc(Cl)c(Cl)c3)CCCN(C(=O)c3ccccc3)C2)CC1 (configuration not stated) | 460 | 1.5 | 389
6 | CS(=O)(=O)N1CC2(CCN(CCCC3(c4ccc(Cl)c(Cl)c4)CCC(=O)N(Cc4ccccc4)C3)CC2)c2ccccc21 (configuration not stated) | 763 | 25 | 2.2
7 | O=C1CCC(CCCN2CCC3(CC2)CN(c2ccccc2)NC3=O)(c2ccc(Cl)c(Cl)c2)CN1Cc1ccccc1 (configuration not stated) | 892 | 127 | 2.5
8 | CS(=O)(=O)N1CC2(CCN(CCCC3(c4ccc(Cl)c(Cl)c4)CCCN(C(=O)c4ccccc4)C3)CC2)c2ccccc21 (configuration not stated) | 497 | 1.2 | 177
9 | O=C(c1ccccc1)N1CCCC(CCCN2CCC(n3c(=O)[nH]c4ccccc43)CC2)(c2ccc(Cl)c(Cl)c2)C1 (configuration not stated) | 379 | 7.9 | 348
